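Growth conditions: 96-well plates. Treatment: test compound, 48 hours, 5 concentrations. Analysis: linear interpolation between bracketing concentrations; unreached endpoints set to highest concentration. At the GI50, growth is halved.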 The source made the active and inactive calls. Cut-off read from the data, not from the text of the source: active = GI50 up to about 1.1 µM and inactive = higher.
Columns and labels:
Test in all cases: growth of human tumour cells (NCI), 48 h
MDA-N = tested on: MDA-N
786-0 = tested on: 786-0
SF-539 = tested on: SF-539
OVCAR-5 = tested on: OVCAR-5
NCI-H460 = tested on: NCI-H460
HCT-15 = tested on: HCT-15
TK-10 = tested on: TK-10
Hs-578T = tested on: Hs-578T
SR = tested on: SR
MDA-MB-231 = tested on: MDA-MB-231
HOP-62 = tested on: HOP-62
MDA-MB-435 = tested on: MDA-MB-435
U-251 = tested on: U-251
RXF 393 = tested on: RXF 393
M19-MEL = tested on: M19-MEL
HOP-18 = tested on: HOP-18
SN12C = tested on: SN12C
DMS-114 = tested on: DMS-114
XF498 = tested on: XF498
SNB-78 = tested on: SNB-78

Row | SMILES | GI50 (MDA-N) | GI50 (786-0) | GI50 (SF-539) | GI50 (OVCAR-5) | GI50 (NCI-H460) | GI50 (HCT-15) [µM] | GI50 (TK-10) | GI50 (Hs-578T) | GI50 (SR) | GI50 (MDA-MB-231) | GI50 (HOP-62) | GI50 (MDA-MB-435) | GI50 (U-251) | GI50 (RXF 393) | GI50 (M19-MEL) | GI50 (HOP-18) | GI50 (SN12C) | GI50 (DMS-114) | GI50 (XF498) | GI50 (SNB-78)
1 | CC(=O)Nc1cc2c(cc1O)CC[C@@H]1[C@@H]2CC[C@]2(C)[C@@H](O)CC[C@@H]12 | 18.1 µM (inactive) | 63 µM (inactive) | 34.5 µM (inactive) | 86.9 µM (inactive) | 34.8 µM (inactive) | 15.3 | 49.7 µM (inactive) | 74.1 µM (inactive) | 20.8 µM (inactive) | 55 µM (inactive) | 73.1 µM (inactive) | 19.7 µM (inactive) | 42 µM (inactive) | 43.3 µM (inactive) | – | – | – | – | – | –
2 | C=CCN1C(N)=C(C(N)=O)S/C1=C1/SC(=S)N(c2ccc(C)cc2)C1=O | – | – | > 100 µM (inactive) | 5.66 µM (inactive) | > 100 µM (inactive) | – | > 100 µM (inactive) | – | > 100 µM (inactive) | – | – | – | > 100 µM (inactive) | – | > 100 µM (inactive) | 61.9 µM (inactive) | – | – | – | –
3 | CCCSc1ccc2[nH]c(N3C(=O)/C(=C/c4cc(OC)c(OC)c(OC)c4)N=C3c3ccccc3)cc2c1 | 4.88 µM (inactive) | 3.24 µM (inactive) | 1.72 µM (inactive) | 17.7 µM (inactive) | 12.5 µM (inactive) | 12.2 | 17 µM (inactive) | 0.67 µM (active) | 1.66 µM (inactive) | > 37.5 µM (inactive) | 1.39 µM (inactive) | 4.03 µM (inactive) | 17.8 µM (inactive) | 7.73 µM (inactive) | – | – | 16.4 µM (inactive) | – | – | –
4 | N#CC(NC12CC3CC(CC(C3)C1)C2)c1ccccc1C(F)(F)F (centres undefined) | – | – | > 100 µM (inactive) | > 100 µM (inactive) | > 100 µM (inactive) | > 100 | > 100 µM (inactive) | – | > 100 µM (inactive) | – | > 100 µM (inactive) | – | – | > 100 µM (inactive) | > 100 µM (inactive) | > 100 µM (inactive) | > 100 µM (inactive) | > 100 µM (inactive) | > 100 µM (inactive) | –
5 | O=c1ccc2ccc(S)cc2o1 | > 100 µM (inactive) | > 100 µM (inactive) | > 100 µM (inactive) | > 100 µM (inactive) | > 100 µM (inactive) | > 100 | 92.5 µM (inactive) | > 100 µM (inactive) | > 100 µM (inactive) | > 100 µM (inactive) | > 100 µM (inactive) | > 100 µM (inactive) | > 100 µM (inactive) | > 100 µM (inactive) | – | – | > 100 µM (inactive) | – | – | –
6 | Cc1c(C#N)c2nnn(C)c(=O)n2c1-c1ccccc1 | > 100 µM (inactive) | – | > 100 µM (inactive) | > 100 µM (inactive) | > 100 µM (inactive) | > 100 | > 100 µM (inactive) | – | – | > 100 µM (inactive) | > 100 µM (inactive) | > 100 µM (inactive) | > 100 µM (inactive) | > 100 µM (inactive) | – | – | > 100 µM (inactive) | – | – | –
7 | Cn1cc(C(=O)/C(Cl)=C(\Cl)C(=O)O)c2ccccc21 | – | > 100 µM (inactive) | > 100 µM (inactive) | > 100 µM (inactive) | > 100 µM (inactive) | > 100 | > 100 µM (inactive) | – | – | – | > 100 µM (inactive) | – | > 100 µM (inactive) | > 100 µM (inactive) | > 100 µM (inactive) | – | – | > 100 µM (inactive) | > 100 µM (inactive) | > 100 µM (inactive)
8 | CC(C)OP(=O)(OC(C)C)/C(=N/Nc1ccc([N+](=O)[O-])cc1)NCCO | – | > 100 µM (inactive) | > 100 µM (inactive) | > 100 µM (inactive) | > 100 µM (inactive) | 72.8 | > 100 µM (inactive) | – | > 100 µM (inactive) | – | > 100 µM (inactive) | – | > 100 µM (inactive) | – | > 100 µM (inactive) | – | > 100 µM (inactive) | 90.6 µM (inactive) | > 100 µM (inactive) | 99.8 µM (inactive)
9 | COc1cccc(N/C(C)=C2/CCOC2=O)c1 | > 10 µM (inactive) | – | > 10 µM (inactive) | > 10 µM (inactive) | > 10 µM (inactive) | 5.08 | > 10 µM (inactive) | > 10 µM (inactive) | > 10 µM (inactive) | 6.56 µM (inactive) | > 10 µM (inactive) | > 10 µM (inactive) | > 10 µM (inactive) | > 10 µM (inactive) | – | – | > 10 µM (inactive) | – | – | –
10 | CC(C)(C)CI | – | – | 88.5 µM (inactive) | 32.2 µM (inactive) | 27.9 µM (inactive) | 33 | > 100 µM (inactive) | – | 25.4 µM (inactive) | – | – | – | 26.2 µM (inactive) | 18.4 µM (inactive) | 23 µM (inactive) | > 10 µM (inactive) | 18.4 µM (inactive) | 19.7 µM (inactive) | 18.5 µM (inactive) | 32.1 µM (inactive)
11 | O=C(O)c1ccc([Se][Se]c2ccc(C(=O)O)cc2)cc1 | – | 34 µM (inactive) | 36.1 µM (inactive) | 23.5 µM (inactive) | 6.65 µM (inactive) | 35.6 | 22.7 µM (inactive) | – | > 10 µM (inactive) | – | – | – | 21.1 µM (inactive) | 21.2 µM (inactive) | 19.5 µM (inactive) | 29.4 µM (inactive) | 37.5 µM (inactive) | 20.6 µM (inactive) | 31.7 µM (inactive) | 18.7 µM (inactive)
12 | NC1C=NNC1=O (centres undefined) | – | – | > 100 µM (inactive) | > 100 µM (inactive) | – | > 100 | > 100 µM (inactive) | – | – | – | – | – | > 100 µM (inactive) | > 100 µM (inactive) | – | < 0.01 µM (active) | > 100 µM (inactive) | > 100 µM (inactive) | > 100 µM (inactive) | > 100 µM (inactive)
13 | COc1cc(Nc2nc3cc(C(F)(F)F)ccc3n3cccc23)cc(OC)c1OC | > 100 µM (inactive) | – | > 100 µM (inactive) | > 100 µM (inactive) | – | > 100 | > 100 µM (inactive) | > 100 µM (inactive) | – | – | > 100 µM (inactive) | 9.46 µM (inactive) | > 100 µM (inactive) | 3.93 µM (inactive) | – | – | 32.4 µM (inactive) | – | – | –
14 | Cc1c2ccnc(C(F)(F)F)c2cc2c1[nH]c1ccccc12 | – | – | 99.1 µM (inactive) | > 125 µM (inactive) | 123 µM (inactive) | > 125 | – | – | – | – | 73.3 µM (inactive) | – | > 125 µM (inactive) | 16.6 µM (inactive) | > 125 µM (inactive) | 0.673 µM (active) | > 125 µM (inactive) | > 125 µM (inactive) | 12 µM (inactive) | 86.5 µM (inactive)
15 | COP(=O)(OC)C(N)CCSC (centres undefined) | > 100 µM (inactive) | > 100 µM (inactive) | – | > 100 µM (inactive) | > 100 µM (inactive) | > 100 | > 100 µM (inactive) | > 100 µM (inactive) | > 100 µM (inactive) | – | > 100 µM (inactive) | > 100 µM (inactive) | > 100 µM (inactive) | – | – | – | > 100 µM (inactive) | – | – | –
16 | CCCn1c(CN(Cc2nc3ccccc3n2CCC)Cc2nc3ccccc3n2CCC)nc2ccccc21 | 2.26 µM (inactive) | – | 4.2 µM (inactive) | 6.07 µM (inactive) | 3.27 µM (inactive) | 4.39 | 15.7 µM (inactive) | 25.6 µM (inactive) | 2.58 µM (inactive) | 2.04 µM (inactive) | 10.8 µM (inactive) | 3.27 µM (inactive) | 3.97 µM (inactive) | 0.249 µM (active) | – | – | 2.01 µM (inactive) | – | – | –
17 | CC(O)C(O)C(N)CC=O (centres undefined) | – | – | > 500 µM (inactive) | 175 µM (inactive) | > 500 µM (inactive) | > 500 | – | – | – | – | > 500 µM (inactive) | – | > 500 µM (inactive) | > 500 µM (inactive) | > 500 µM (inactive) | > 500 µM (inactive) | > 500 µM (inactive) | > 500 µM (inactive) | > 129 µM (inactive) | > 482 µM (inactive)
18 | O=S1(=O)CS(=O)(=O)OCCCO1 | > 100 µM (inactive) | > 100 µM (inactive) | 54.1 µM (inactive) | > 100 µM (inactive) | 27.3 µM (inactive) | > 100 | > 100 µM (inactive) | > 100 µM (inactive) | 41.2 µM (inactive) | > 100 µM (inactive) | > 100 µM (inactive) | > 100 µM (inactive) | > 100 µM (inactive) | > 100 µM (inactive) | – | – | > 100 µM (inactive) | – | – | –
19 | CC1(C)CCCC2(C)[C@@H]1CC[C@]13C[C@](C)(CC[C@@H]21)[C@@H]3CO (some centres undefined) | – | – | > 100 µM (inactive) | > 100 µM (inactive) | > 100 µM (inactive) | > 100 | > 100 µM (inactive) | – | > 10 µM (inactive) | – | > 100 µM (inactive) | – | > 100 µM (inactive) | 98.9 µM (inactive) | > 100 µM (inactive) | – | > 100 µM (inactive) | > 100 µM (inactive) | > 100 µM (inactive) | > 100 µM (inactive)
20 | C#C[C@]1(O)[C@@H](CO)O[C@@H](n2ccc(=O)[nH]c2=O)[C@@H]1O | 0.0822 µM (active) | < 0.0121 µM (active) | 0.0117 µM (active) | 0.406 µM (active) | < 0.01 µM (active) | 0.0186 | 0.413 µM (active) | 1.41 µM (inactive) | 62.4 µM (inactive) | 0.251 µM (active) | 0.147 µM (active) | 0.173 µM (active) | 0.121 µM (active) | – | – | – | < 0.0184 µM (active) | – | – | –

From ChEMBL document CHEMBL1201862, “PubChem BioAssay data set” (2004)
